In experiment [1] the target is FKBP (Homo sapiens, UniProt P62942). Briefly: FKBP competitive binding assay based on fluorescence polarization (FP). Conditions: for IC50: competitive FP binding. How it is done:
A Competitive Binding FP Assay is described in detail in WO99/36553 and WO96/41865. That assay permits the in vitro measurement of an IC50 value for a given compound which reflects its ability to bind to an FKBP-protein in competition with a labeled FKBP ligand, such as, for example, FK506.
(§1) A diverse group of C7-modified 28-epirapalogs were prepared as described in Example 4.
(In general: In fluorescence polarisation assays a small probe gives low polarisation when free and higher when bound to something large.)

The target of experiment [2] is T1, transcriptional switch components containing FKBP and 2098L mutant FRB domains (Homo sapiens, UniProt P42345+P62942).
T1 construct: transcriptional switchcomponents containing FKBP and 2098L mutant FRB domains, respectively; fused on or other part: The two switch components are separate chimeric proteins; Neither is given for this cell line
Briefly: transcription assay in engineered HD1080 cells expressing SEAP (txn 2098L). The class given is cell-based. Conditions: for TXN 2098L peak relative to rapamycin peak: superscript mark on EC50 cell. The text has this: The ability of the rapalogs to multimerize chimeric proteins may be measured in cell-based assays by measuring the occurrence of an event triggered by such multimerization. For instance, one may use cells containing and capable of expressing DNA encoding a first chimeric protein comprising one or more FKBP-domains and one or more effector domains as well as DNA encoding a second chimeric protein containing an FRB domain and one or more effector domains capable, upon multimerization, of actuating a biological response. We prefer to use cells which further contain a reporter gene under the transcriptional control of a regulatory element (i.e., promoter) which is responsive to the multimerization of the chimeric proteins. The design and preparation of illustrative components and their use in so engineered cells is described in WO99/36553 and WO96/41865 and the other international patent applications referred to in this and the foregoing section. (See also W099/10510 for additional guidance on the design, assembly and delivery of nucleic acids to render cells and animals responsive to rapalogs of interest and for additional guidance on applications of such systems.) The cells are grown or maintained in culture. A rapalog is added to the culture medium and after a suitable incubation period (to permit gene expression and secretion, e.g. several hours or overnight) the presence of the reporter gene product is measured. Positive results, i.e., multimerization, correlates with transcription of the reporter gene as observed by the appearance of the reporter gene product. The reporter gene product may be a conveniently detectable protein (e.g. by ELISA) or may catalyze the production of a conveniently detectable product (e.g. colored). Materials and methods for producing appropriate cell lines for conducting such assays are disclosed in the international patent applications cited above in this section.
2. EC50 values of the various compounds was measured in a transcription assay using genetically engineered HD1080 cells which constitutively express transcriptional switch components containing FKBP and 2098L mutant FRB domains, respectively and which regulatably express secreted alkaline phosphatase (SEAP) in the presence of a compound which multimerizes the switch components. The assay is a literature assay. See WO 99/36553, e.g. Example 12, pages 120–121 (& FIG. 2D) […]

Experiment [3] deals with murine splenocyte. The experiment is described as follows: murine splenocyte assay for immunosuppressive activity. The format is cell-based. The conditions noted are these: for immunosuppressive activity compared with rapamycin: splenocyte proliferation assay, versus rapamycin. The method, then: 3. Conventional murine splenocyte assay for immunosuppressive activity.
as §1

Where [4] appears, read: methods of Example 2.5, read-out: FKBP IC50.
The mark [5] stands for this setting: cellular transcription assay, methods of Example 2.5, read-out: TXN 2098L EC50.
The mark [6] stands for this setting: mouse splenocyte assay, methods of Example 2.5, read-out: Splenocyte IC50.
Where [7] appears, read: Mus musculus, Splenocyte, mouse splenocyte assay, methods of Example 2.5, read-out: Splenocyte IC50.
Setting [8] is: Mus musculus, Splenocyte, murine splenocyte assay, immunosuppressive activity, read-out: Splenocyte IC50.
[9] abbreviates: FKBP IC50 (nM), methods of Example 2.5.
Where [10] appears, read: read-out: TXN 2098L EC50, cellular transcription assay, methods of Example 2.5.

“And” between values parts separate entries of the source, which are not always exact repeats. Equal entries are not always repeated. Where two headings read alike, the source gives them in different places.

Chain of FKBP (P62942 whole entry): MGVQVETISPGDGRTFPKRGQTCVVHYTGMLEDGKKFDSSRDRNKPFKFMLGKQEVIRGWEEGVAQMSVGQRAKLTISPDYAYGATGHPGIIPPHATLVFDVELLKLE
T1 sequence (P62942 2-108 limits assumed, stated change not applied, other chains not shown): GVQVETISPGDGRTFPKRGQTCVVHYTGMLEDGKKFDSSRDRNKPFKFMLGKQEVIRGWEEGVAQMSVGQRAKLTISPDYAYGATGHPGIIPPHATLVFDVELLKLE

By IC50 is commonly meant the concentration at which inhibition is half-maximal. For orientation: EC50 means the concentration at which the effect is half-maximal. Consider 28-epi-7S-dimethylthiophene, for which the IC50 in experiment [1] (setting [4]) is 78 nM; in experiment [3] (setting [6]), 1240 to 1540 nM. Besides, the EC50 in experiment [2] (setting [5]) was 30 nM.
Consider `CO[C@@H]1C[C@H](C[C@@H](C)[C@@H]2CC(=O)[C@H](C)/C=C(\C)[C@H](O)[C@@H](OC)C(=O)[C@H](C)C[C@H](C)/C=C/C=C/C=C(\C)[C@H](N(C)C(=O)OCc3ccccc3)C[C@@H]3CC[C@@H](C)[C@@](O)(O3)C(=O)C(=O)N3CCCC[C@H]3C(=O)O2)CC[C@H]1O` [28-epi-7R-N-Me-benzylcarbamate], for which the IC50 is 163 nM in experiment [1] (setting [4]) and 1150 nM in experiment [3] (setting [7]). Besides, the EC50 in experiment [2] (setting [5]) is 8 nM. Further, the “TXN 2098L peak relative to rapamycin peak” value in experiment [2] is “(−) (peak was <80% rapamycin peak)”.
For the molecule `COc1ccccc1COC1CC2CCC(C)C(O)(O2)C(=O)C(=O)N2CCCCC2C(=O)OC(C(C)CC2CCC(O)C(OC)C2)CC(=O)C(C)C=C(C)C(O)C(OC)C(=O)C(C)CC(C)C=CC=CC=C1C` (single isomer, unassigned) [28-epi-7R-2′-methoxybenzyloxy], the results for the concentration for half-maximal inhibition (IC50) in experiment [1] (setting [4]) and in experiment [3] (setting [6]) were 4.6 nM and 653 nM, respectively. Besides, the EC50 in experiment [2] (setting [5]) stood at 24 nM.
In the case of `CO[C@@H]1C[C@H](C[C@@H](C)[C@@H]2CC(=O)[C@H](C)/C=C(\C)[C@H](O)[C@@H](OC)C(=O)[C@H](C)C[C@H](C)/C=C/C=C/C=C(\C)[C@@H](N(C)S(=O)(=O)N(C)c3ccccc3)C[C@@H]3CC[C@@H](C)[C@@](O)(O3)C(=O)C(=O)N3CCCC[C@H]3C(=O)O2)CC[C@H]1O` [28-epi-7S-N-Me-methylphenylsulfamide], the EC50 in experiment [2] (setting [5]) turned out to be 26 nM.
For the molecule `COC1CC(CC(C)C2CC(=O)C(C)C=C(C)C(O)C(OC)C(=O)C(C)CC(C)C=CC=CC=C(C)C(OCc3ccccc3)CC3CCC(C)C(O)(O3)C(=O)C(=O)N3CCCCC3C(=O)O2)CCC1O` (single isomer, unassigned) [28-epi-7S-benzyloxy], the results for the IC50 in experiment [1] (setting [4]) and in experiment [3] (setting [6]) were 70 nM and 93 nM, respectively. Further, in experiment [2] (setting [5]), the EC50 came to 18 nM.
Take `COC1CC(CC(C)C2CC(=O)C(C)C=C(C)C(O)C(OC)C(=O)C(C)CC(C)C=CC=CC=C(C)C(c3ccc(C)s3)CC3CCC(C)C(O)(O3)C(=O)C(=O)N3CCCCC3C(=O)O2)CCC1O` (stereo not drawn) [28-epi-7R-methylthiophene]: the IC50 in experiment [1] (setting [4]) was 120 nM; in experiment [3] (setting [6]) it was 394 to 424 nM. Further, the 50% effective concentration (EC50) in experiment [2] (setting [5]) is 22 nM.
Take `CCOC1CC2CCC(C)C(O)(O2)C(=O)C(=O)N2CCCCC2C(=O)OC(C(C)CC2CCC(O)C(OC)C2)CC(=O)C(C)C=C(C)C(O)C(OC)C(=O)C(C)CC(C)C=CC=CC=C1C` (stereo not drawn) [28-epi-7S-ethoxy]: the EC50 in experiment [2] (setting [5]) worked out at 15 nM. The half-inhibitory concentration (IC50) in experiment [3] (Mus musculus, Splenocyte, read-out: Splenocyte IC50 (nM)) was determined as 801 nM.
For the molecule `C=CCO[C@@H]1CC[C@@H](C[C@@H](C)[C@@H]2CC(=O)[C@H](C)/C=C(\C)[C@H](O)[C@@H](OC)C(=O)[C@H](C)C[C@H](C)/C=C/C=C/C=C(\C)[C@@H](OC)C[C@@H]3CC[C@@H](C)[C@@](O)(O3)C(=O)C(=O)N3CCCC[C@H]3C(=O)O2)C[C@H]1OC` [43-O-allyl-28-epirapamycin], the IC50 is 65 nM in experiment [1] (fluorescein-labelled FK506 probe (AP1491), read-out: FKBP binding IC50) and 641 to 684 nM in experiment [3] (setting [8]). Also, the EC50 in experiment [2] (HD1080 cells, FKBP and 2098L mutant FRB switch, SEAP reporter, read-out: txn 2098L EC50) was found to be 8 nM.
`CO[C@H]1C[C@@H]2CC[C@@H](C)[C@@](O)(O2)C(=O)C(=O)N2CCCCC2C(=O)O[C@H]([C@H](C)C[C@@H]2CC[C@@H](O)[C@H](OC)C2)CC(=O)[C@H](C)/C=C(\C)[C@H](O)[C@@H](OC)C(=O)[C@H](C)C[C@H](C)/C=C/C=C/C=C/1C` (some centres unmarked) [28-epirapamycin]: the “affinity towards FKBP, times weaker than that of rapamycin” value in experiment [1] (fluorescence polarization competition assay, versus rapamycin) is recorded as “about 5 times”. The IC50 in experiment [3] (setting [7]) and in experiment [3] (setting [8]) was 0.9 to 3.5 nM each time. In addition, the “immunosuppressive activity compared with rapamycin” value in experiment [3] is reported as “less potent immunosuppressive activity”; in experiment [3] (listed as 2), “more than an order of magnitude reduced”.
With `CO[C@H]1C[C@@H]2CC[C@@H](C)[C@@](O)(O2)C(=O)C(=O)N2CCCCC2C(=O)O[C@H]([C@H](C)C[C@@H]2CC[C@@H](O)[C@H](OC)C2)CC(=O)[C@H](C)/C=C(\C)[C@@H](O)[C@@H](OC)C(=O)[C@H](C)C[C@H](C)/C=C/C=C/C=C/1C` (some centres unmarked) [rapamycin, reference compound], the IC50 in experiment [3] (setting [7]) and in experiment [3] (setting [8]) was 0.1 to 0.3 nM throughout.
For the molecule `CO[C@@H]1C[C@H](C[C@@H](C)[C@@H]2CC(=O)[C@H](C)/C=C(\C)[C@H](O)[C@@H](OC)C(=O)[C@H](C)C[C@H](C)/C=C/C=C/C=C(\C)[C@H](Oc3ccccc3C)C[C@@H]3CC[C@@H](C)[C@@](O)(O3)C(=O)C(=O)N3CCCC[C@H]3C(=O)O2)CC[C@H]1O` [28-epi-7R-2′-methylphenyloxy], the IC50 in experiment [1] (setting [9]) stood at 8.1 nM. The concentration giving a half-maximal response (EC50) in experiment [2] (setting [10]) is 8 nM. Further, in experiment [2], the “TXN 2098L peak relative to rapamycin peak” value is recorded as “(+) (peak was >125% rapamycin peak)”.
Regarding `CO[C@@H]1C[C@H](C[C@@H](C)[C@@H]2CC(=O)[C@H](C)/C=C(\C)[C@H](O)[C@@H](OC)C(=O)[C@H](C)C[C@H](C)/C=C/C=C/C=C(\C)[C@H](N(C)S(=O)(=O)N(C)C)C[C@@H]3CC[C@@H](C)[C@@](O)(O3)C(=O)C(=O)N3CCCC[C@H]3C(=O)O2)CC[C@H]1O` [28-epi-7R-N-Me-dimethylsulfamide], the EC50 in experiment [2] (setting [5]) stood at 8 nM. For the same molecule, in experiment [3] (setting [6]), the half-maximal inhibitory concentration (IC50) was 653 nM.
`COC1CC(CC(C)C2CC(=O)C(C)C=C(C)C(O)C(OC)C(=O)C(C)CC(C)C=CC=CC=C(C)C(OCCC3CCCCC3)CC3CCC(C)C(O)(O3)C(=O)C(=O)N3CCCCC3C(=O)O2)CCC1O` (stereo not drawn) [28-epi-7S-cyclohexylethyloxy]: the EC50 in experiment [2] (setting [5]) was determined as 76 nM.
Turning to `CO[C@@H]1C[C@H](C[C@@H](C)[C@@H]2CC(=O)[C@H](C)/C=C(\C)[C@H](O)[C@@H](OC)C(=O)[C@H](C)C[C@H](C)/C=C/C=C/C=C(\C)[C@@H](Oc3ccccc3C)C[C@@H]3CC[C@@H](C)[C@@](O)(O3)C(=O)C(=O)N3CCCC[C@H]3C(=O)O2)CC[C@H]1O` [28-epi-7S-2′-methylphenyloxy], in experiment [1] (setting [9]), the IC50 is 17 nM. Besides, the EC50 in experiment [2] (setting [10]) is 14 nM.
Consider `CCOC1CC2CCC(C)C(O)(O2)C(=O)C(=O)N2CCCCC2C(=O)OC(C(C)CC2CCC(O)C(OC)C2)CC(=O)C(C)C=C(C)C(O)C(OC)C(=O)C(C)CC(C)C=CC=CC=C1C` (stereo not drawn) [28-epi-7R-ethoxy], for which, in experiment [2] (setting [5]), the EC50 came out at 33 nM.
As to `CO[C@@H]1C[C@H](C[C@@H](C)[C@@H]2CC(=O)[C@H](C)/C=C(\C)[C@H](O)[C@@H](OC)C(=O)[C@H](C)C[C@H](C)/C=C/C=C/C=C(\C)[C@H](N(C)S(=O)(=O)N(C)c3ccccc3)C[C@@H]3CC[C@@H](C)[C@@](O)(O3)C(=O)C(=O)N3CCCC[C@H]3C(=O)O2)CC[C@H]1O` [28-epi-7R-N-Me-methylphenylsulfamide], in experiment [1] (setting [4]), the IC50 was 74 nM. In addition, the EC50 in experiment [2] (setting [5]) was determined as 8 nM.
Take `COC1CC(CC(C)C2CC(=O)C(C)C=C(C)C(O)C(OC)C(=O)C(C)CC(C)C=CC=CC=C(C)C(SC(C)C)CC3CCC(C)C(O)(O3)C(=O)C(=O)N3CCCCC3C(=O)O2)CCC1O` (stereo not drawn) [28-epi-7S-isopropylthioether]: the half-inhibitory concentration (IC50) in experiment [1] (setting [4]) is 15 nM and 21 nM. For the same molecule, the “TXN 2098L peak relative to rapamycin peak” value in experiment [2] is “(+) (peak was >125% rapamycin peak)”.
With `CO[C@@H]1C[C@H](C[C@@H](C)[C@@H]2CC(=O)[C@H](C)/C=C(\C)[C@H](O)[C@@H](OC)C(=O)[C@H](C)C[C@H](C)/C=C/C=C/C=C(\C)[C@@H](OC(C)C)C[C@@H]3CC[C@@H](C)[C@@](O)(O3)C(=O)C(=O)N3CCCC[C@H]3C(=O)O2)CC[C@H]1O` [28-epi-7S-isopropyloxy], the IC50 in experiment [1] (setting [4]) was 49 nM. Also, the EC50 in experiment [2] (setting [5]) came out at 29 nM.

Source of the values: patent US7196192B2, “28-epirapalogs” (Ariad Gene Therapeutics, Inc., priority 1999, dated 2007).
